From ChEMBL document CHEMBL3421569, “Stemistry: the control of stem cells in situ using chemistry” (2015)

How the values were obtained:
[1] = Induction of human ESC differentiation assessed as appearance of pigmented area measured over 8 weeks relative to control; type: functional, Embryonic stem cell
[2] = Induction of human ESC differentiation assessed as increase in microphthalmia-associated transcription factor expression measured over 8 weeks relative to total pigmented area; type: functional, Embryonic stem cell

Molecule `NC(=O)c1cccnc1` [NIACINAMIDE] has an Activity [1] of over 70% and an Activity [2] of 5%.
